Results on four compounds are retold here after ChEMBL document CHEMBL1201862, “PubChem BioAssay data set” (2004).

Some test systems named below: 786-0; A498; CAKI-1; COLO 205; DU-145; Hs-578T; MDA-MB-435; MDA-N; MOLT-4; NCI-H226; SF-295; SK-MEL-28; SK-MEL-5; SNB-19; SNB-75; T47D; TK-10; U-251; UACC-257; UO-31.
What all share (test): growth of human tumour cells (NCI), 48 h

Each structure is given as a SMILES string.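 How tested: cells in 96-well plates exposed to compound for 48 hours at five concentrations. GI50: concentration for 50% inhibition of growth.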 The source made the active and inactive calls. Rule as the data show it: active = GI50 up to about 1.1 µM and inactive = higher.

`NC1CCC(N(CC(=O)O)CC(=O)O)C(N(CC(=O)O)CC(=O)O)C1` (stereo not given): the GI50 in the assay on 786-0 was > 10 µM (inactive); in the assay on A498, > 100 µM (inactive); in the assay with CAKI-1 it was > 100 µM (inactive); in the assay on COLO 205, > 100 µM (inactive); with DU-145, > 100 µM (inactive); with Hs-578T, > 100 µM (inactive). Further, the GI50 in the assay on MDA-MB-435, in the assay with MDA-N, in the assay with MOLT-4, in the assay on NCI-H226, with SF-295 and in the assay with SK-MEL-28 was > 100 µM (inactive) in each case. In addition, the GI50 with SK-MEL-5, in the assay on SNB-19, in the assay on SNB-75, in the assay with T47D, in the assay on TK-10 and in the assay on U-251 was > 100 µM (inactive) in each case. Moreover, the GI50 is > 10 µM (inactive) with UACC-257 and > 100 µM (inactive) in the assay with UO-31.

`C1CN2CCNCCN(CCN1)CC2`: the GI50 with 786-0, in the assay on A498, in the assay on CAKI-1, with COLO 205, in the assay on DU-145 and in the assay with Hs-578T was > 100 µM (inactive) each time. Moreover, the GI50 in the assay with MDA-MB-435, with MDA-N, in the assay with MOLT-4, in the assay on NCI-H226, in the assay with SF-295 and in the assay with SK-MEL-28 was > 100 µM (inactive) throughout. For the same compound, the GI50 in the assay with SK-MEL-5, in the assay with SNB-19, in the assay on SNB-75, in the assay on T47D, with TK-10 and in the assay on U-251 was > 100 µM (inactive) throughout. For the same compound, the GI50 in the assay with UACC-257 and with UO-31 was > 100 µM (inactive) in each case.

As for `COc1cccc2c3ccccc3c3nc[nH]c3c12`, the GI50 was 18.1 µM (inactive) with 786-0; 23.1 µM (inactive) in the assay with A498; 48.4 µM (inactive) in the assay on CAKI-1; 17.9 µM (inactive) with COLO 205; 46.9 µM (inactive) with DU-145; < 0.01 µM (active) with Hs-578T. Besides, the GI50 is 31.6 µM (inactive) in the assay on MDA-MB-435; 32.1 µM (inactive) in the assay on MDA-N; 9.08 µM (inactive) in the assay on MOLT-4; 37.8 µM (inactive) with NCI-H226; 16 µM (inactive) in the assay on SF-295; 19.7 µM (inactive) in the assay on SK-MEL-28. Besides, the GI50 is 16.7 µM (inactive) in the assay on SK-MEL-5; > 46.8 µM (inactive) with SNB-19; > 47.8 µM (inactive) with SNB-75; > 50.4 µM (inactive) in the assay on T47D; 26.1 µM (inactive) in the assay on TK-10; 14.7 µM (inactive) in the assay with U-251. Further, the GI50 in the assay with UACC-257 is 23.6 µM (inactive); in the assay with UO-31 it was 41.7 µM (inactive).

In the case of `CC(=O)O[C@H]1C(=O)[C@@]2(C)C(C(OC(=O)c3ccccc3)[C@]3(O)C[C@H](OC(=O)C(OC(=O)CCCC(=O)NCCCN(C)C)C(NC(=O)c4ccccc4)c4ccccc4)C(C)=C1C3(C)C)C1(OC(C)=O)COC1C[C@@H]2O` (stereo not given in full), the GI50 with 786-0 is 0.0134 µM (active); in the assay with A498, 0.0607 µM (active); in the assay on CAKI-1 it was 0.859 µM (active); in the assay with COLO 205 it was < 0.01 µM (active); in the assay with DU-145 it was 0.0105 µM (active); with Hs-578T it was < 0.01 µM (active). The GI50 is < 0.01 µM (active) with MDA-MB-435; < 0.01 µM (active) in the assay with MDA-N; < 0.01 µM (active) with MOLT-4; 0.495 µM (active) in the assay with NCI-H226; 0.02 µM (active) in the assay with SF-295; < 0.01 µM (active) in the assay with SK-MEL-28. Besides, the GI50 is < 0.01 µM (active) in the assay on SK-MEL-5; 0.0152 µM (active) with SNB-19; < 0.01 µM (active) in the assay with SNB-75; 0.149 µM (active) with T47D; 0.0425 µM (active) in the assay with TK-10; < 0.01 µM (active) in the assay with U-251. In addition, the GI50 was 0.0143 µM (active) in the assay with UACC-257 and 1.02 µM (active) in the assay on UO-31.
